What was measured:
Chang liver cell line = assay: Cytotoxicity assay (Cytell Cell Imaging), normal cell line; assay type: cell-based; details: Homo sapiens, read-out: IC50 Normal Cell Line Chang Liver
M-Hela = assay: Cytotoxicity assay (Cytell Cell Imaging, DAPI/propidium iodide), cancer cell line; assay type: cell-based; details: Homo sapiens, M-HeLa, read-out: IC50 Cancer Cell Line M-Hela

Structure (SMILES)	IC50 (Chang liver cell line)	melting point	IC50 (M-Hela)
COc1ccc(NC(=O)N2CCCC2c2cc3c(cc2O)OCO3)cc1 (stereo not drawn) [5c, 2-(6-Hydroxybenzo[d][1,3]dioxol-5-yl)-N-(4-methoxyphenyl)pyrrolidine-1-carboxamide]	> 100 µM	112 to 114 °C	> 100 µM
O=C(Nc1ccc(Br)cc1)N1CCCC1c1cc2c(cc1O)OCO2 (stereo not drawn) [5d, N-(4-Bromophenyl)-2-(6-hydroxybenzo[d][1,3]dioxol-5-yl)pyrrolidine-1-carboxamide]	> 100 µM	164 °C	> 100 µM
O=C(Nc1ccc(F)cc1)N1CCCC1c1cc2c(cc1O)OCO2 (stereo not drawn) [5e, N-(4-Fluorophenyl)-2-(6-hydroxybenzo[d][1,3]dioxol-5-yl)pyrrolidine-1-carboxamide]	> 100 µM	184 to 185 °C	> 100 µM
CCCCCCNC(=O)N1CCCC1c1cc2c(cc1O)OCO2 (stereo not drawn) [5f, N-Hexyl-2-(6-hydroxybenzo[d][1,3]dioxol-5-yl)pyrrolidine-1-carboxamide]	> 100 µM	91 to 93 °C	> 100 µM
O=C(NC1CCCCC1)N1CCCC1c1cc2c(cc1O)OCO2 (stereo not drawn) [5g, N-Cyclohexyl-2-(6-hydroxybenzo[d][1,3]dioxol-5-yl)pyrrolidine-1-carboxamide]	> 100 µM	159 to 160 °C	> 100 µM
CCCCCCNC(=O)N1CCCC1c1ccc(Nc2c([N+](=O)[O-])c(Cl)cc3c2no[n+]3[O-])cc1O (stereo not drawn) [6f, 6-Chloro-4-((4-(1-(hexylcarbamoyl)pyrrolidin-2-yl)-3-hydroxyphenyl)amino)-5-nitrobenzo[c][1,2,5]oxadiazole 1-oxide]	57 ± 4.3 µM	121 to 122 °C (dec.)	47 ± 2.9 µM
Cc1cc(O)c(C2CCCN2C(=O)Nc2ccccc2)c(=O)o1 (stereo not drawn) [7b, 2-(4-Hydroxy-6-methyl-2-oxo-2H-pyran-3-yl)-N-phenylpyrrolidine-1-carboxamide]	> 100 µM	190 to 191 °C	> 100 µM
COc1ccc(NC(=O)N2CCCC2c2c(O)cc(C)oc2=O)cc1 (stereo not drawn) [7c, 2-(4-Hydroxy-6-methyl-2-oxo-2H-pyran-3-yl)-N-(4-methoxyphenyl)pyrrolidine-1-carboxamide]	> 100 µM	168 to 169 °C	> 100 µM
Cc1cc(O)c(C2CCCN2C(=O)Nc2ccc(F)cc2)c(=O)o1 (stereo not drawn) [7e, N-(4-Fluorophenyl)-2-(4-hydroxy-6-methyl-2-oxo-2H-pyran-3-yl)pyrrolidine-1-carboxamide]	> 100 µM	177 to 178 °C	> 100 µM
CCCCCCNC(=O)N1CCCC1c1c(O)cc(C)oc1=O (stereo not drawn) [7f, N-Hexyl-2-(4-hydroxy-6-methyl-2-oxo-2H-pyran-3-yl)pyrrolidine-1-carboxamide]	> 100 µM	137 to 138 °C	> 100 µM
Cc1cc(O)c(C2CCCN2C(=O)NC2CCCCC2)c(=O)o1 (stereo not drawn) [7g, N-Cyclohexyl-2-(4-hydroxy-6-methyl-2-oxo-2H-pyran-3-yl)pyrrolidine-1-carboxamide]	> 100 µM	184 to 185 °C	> 100 µM
O=C(Nc1ccccc1)N1CCCC1c1c(O)c2ccccc2oc1=O (stereo not drawn) [8b, 2-(4-Hydroxy-2-oxo-2H-chromen-3-yl)-N-phenylpyrrolidine-1-carboxamide]	> 100 µM	179 to 180 °C	> 100 µM
COc1ccc(NC(=O)N2CCCC2c2c(O)c3ccccc3oc2=O)cc1 (stereo not drawn) [8c, 2-(4-Hydroxy-2-oxo-2H-chromen-3-yl)-N-(4-methoxyphenyl)pyrrolidine-1-carboxamide]	> 100 µM	152 to 153 °C	> 100 µM
O=C(Nc1ccc(Br)cc1)N1CCCC1c1c(O)c2ccccc2oc1=O (stereo not drawn) [8d, N-(4-Bromophenyl)-2-(4-hydroxy-2-oxo-2H-chromen-3-yl)pyrrolidine-1-carboxamide]	> 100 µM	179 °C	> 100 µM
O=C(Nc1ccc(F)cc1)N1CCCC1c1c(O)c2ccccc2oc1=O (stereo not drawn) [8e, N-(4-Fluorophenyl)-2-(4-hydroxy-2-oxo-2H-chromen-3-yl)pyrrolidine-1-carboxamide]	> 100 µM	165 °C	> 100 µM
CCCCCCNC(=O)N1CCCC1c1c(O)c2ccccc2oc1=O (stereo not drawn) [8f, N-Hexyl-2-(4-hydroxy-2-oxo-2H-chromen-3-yl)pyrrolidine-1-carboxamide]	> 100 µM	124 to 125 °C	> 100 µM
O=C(NC1CCCCC1)N1CCCC1c1c(O)c2ccccc2oc1=O (stereo not drawn) [8g, N-Cyclohexyl-2-(4-hydroxy-2-oxo-2H-chromen-3-yl)pyrrolidine-1-carboxamide]	> 100 µM	166 to 167 °C	> 100 µM

From article PMC6749236, “Synthesis of Novel 2-(Het)arylpyrrolidine Derivatives and Evaluation of Their Anticancer and Anti-Biofilm Activity” (Molecules, 2019)
